Measured values from PubChem BioAssay (NCI).
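Where inhibition never reached the appropriate level, the endpoint shown equals the highest concentration tested. Otherwise, values were interpolated linearly from a five-concentration, 48-hour dose response in 96-well plates. The concentration for full growth arrest is given as TGI.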

Assays:
Assay in all cases: inhibition of tumour cell growth, NCI panel, 48 h
OVCAR-3 ovarian = tested on: OVCAR-3 ovarian
NCI-H522 lung = tested on: NCI-H522 lung
COLO 205 colon = tested on: COLO 205 colon
OVCAR-8 ovarian = tested on: OVCAR-8 ovarian
HL-60(TB) leukemia = tested on: HL-60(TB) leukemia
SNB-19 CNS = tested on: SNB-19 CNS
SK-MEL-2 melanoma = tested on: SK-MEL-2 melanoma
NCI-H226 lung = tested on: NCI-H226 lung
UO-31 renal = tested on: UO-31 renal
786-0 renal = tested on: 786-0 renal
SN12C renal = tested on: SN12C renal
OVCAR-5 ovarian = tested on: OVCAR-5 ovarian
CCRF-CEM leukemia = tested on: CCRF-CEM leukemia
SK-OV-3 ovarian = tested on: SK-OV-3 ovarian
HOP-62 NSCLC = tested on: HOP-62 NSCLC
SR leukemia = tested on: SR leukemia
SW-620 colon = tested on: SW-620 colon
PC-3 prostate = tested on: PC-3 prostate
MDA-MB-435 = tested on: MDA-MB-435

Measured: TGI

COc1cc(C=O)c(-c2c(C=O)ccc3c2OCO3)c(OC)c1OC
81.1 µM: HL-60(TB) leukemia
not listed: PC-3 prostate | MDA-MB-435
> 100 µM: all other assays above

COc1ccc2nc(N/N=C/c3sccc3C)cc(C)c2c1
48.2 µM: SN12C renal
45.8 µM: OVCAR-3 ovarian
32.7 µM: COLO 205 colon
36.3 µM: HOP-62 NSCLC
42.6 µM: NCI-H226 lung
67 µM: CCRF-CEM leukemia
47.6 µM: HL-60(TB) leukemia
63.1 µM: SK-MEL-2 melanoma
65.1 µM: UO-31 renal
43.9 µM: MDA-MB-435
61.3 µM: OVCAR-5 ovarian
38.7 µM: PC-3 prostate
27.6 µM: 786-0 renal
65 µM: SW-620 colon
32.1 µM: SK-OV-3 ovarian
> 100 µM: OVCAR-8 ovarian | SNB-19 CNS

COc1ccc2nc3cc(Cl)ccc3c(Sc3ccc([N+](=O)[O-])cc3C)c2c1
46.1 µM: COLO 205 colon
not listed: HL-60(TB) leukemia | PC-3 prostate | MDA-MB-435
> 100 µM: all other assays above

O=C(Nc1cccc(O)c1)C(=O)C1C(=O)NC(=S)NC1=O
not listed: SK-MEL-2 melanoma | OVCAR-5 ovarian | HOP-62 NSCLC | PC-3 prostate | MDA-MB-435
> 100 µM: all other assays above

CNC1(c2cc3ccccc3s2)CCCCC1
67.3 µM: SR leukemia
39.7 µM: 786-0 renal
41.9 µM: COLO 205 colon
91.3 µM: NCI-H226 lung
95.7 µM: OVCAR-5 ovarian
55.5 µM: PC-3 prostate
36.6 µM: MDA-MB-435
29.1 µM: NCI-H522 lung
not listed: HL-60(TB) leukemia | SK-MEL-2 melanoma | CCRF-CEM leukemia
> 100 µM: all other assays above

O=C1C2=Cc3ccccc3OC2(O)Oc2cc3ccccc3cc21 (configuration not stated)
not listed: NCI-H522 lung | HL-60(TB) leukemia | SNB-19 CNS | UO-31 renal
> 100 µM: all other assays above

O=C1COc2cc(NC(=S)Nc3ccccc3)ccc2N1
not listed: PC-3 prostate | MDA-MB-435
> 100 µM: all other assays above

CC1(c2cccc(C3CC4(CCC3=O)OCCCCO4)c2)OCCO1 (configuration not stated)
not listed: SR leukemia | PC-3 prostate | MDA-MB-435
> 100 µM: all other assays above

O=C1NC(=S)N/C1=C\c1cccs1
not listed: HL-60(TB) leukemia | SR leukemia
> 100 µM: all other assays above

CC(=O)SCCC(NC(=S)Nc1ccccc1)P(=O)(Oc1ccccc1)Oc1ccccc1 (configuration not stated)
not listed: SK-MEL-2 melanoma | PC-3 prostate
> 100 µM: all other assays above

C=C(C)C1CCC(C(=O)O)CC1 (configuration not stated)
not listed: HL-60(TB) leukemia | SR leukemia
> 100 µM: all other assays above

CC(=O)c1ccc(NC(=O)/C(CC(=O)c2sc(-c3cccnc3)nc2C)=N/NC(N)=O)cc1
66.5 µM: CCRF-CEM leukemia
35.2 µM: COLO 205 colon
72.9 µM: HL-60(TB) leukemia
83.8 µM: 786-0 renal
75.6 µM: NCI-H226 lung
not listed: HOP-62 NSCLC | PC-3 prostate | MDA-MB-435
> 100 µM: all other assays above

CCOC1C(Br)Cn2c(=O)c3cc4ccccc4cc3c(=O)n2C1C (configuration not stated)
not listed: NCI-H522 lung | PC-3 prostate | MDA-MB-435
> 100 µM: all other assays above

COc1ccc(-c2c(C(C)=O)c(-c3ccccc3)n(C3OC(CO)C(O)C(O)C3O)c(=S)c2C#N)cc1 (configuration not stated)
not listed: SK-MEL-2 melanoma | SR leukemia | PC-3 prostate
> 100 µM: all other assays above

CC12C=CC(C)(C3C(=O)C4C(C(=O)C31)C1(C)C=CC4(C)S1=O)S2=O (configuration not stated)
not listed: HL-60(TB) leukemia | SK-MEL-2 melanoma | SN12C renal | CCRF-CEM leukemia | SR leukemia | SW-620 colon | MDA-MB-435
> 100 µM: all other assays above

C#CCn1c(=O)c(I)cn(/C(=C/C(=O)OCC)C(=O)OCC)c1=O
19.8 µM: MDA-MB-435
> 57.7 µM: CCRF-CEM leukemia
19.1 µM: OVCAR-8 ovarian
3.09 µM: 786-0 renal
32.3 µM: SN12C renal
2.37 µM: NCI-H522 lung
32.9 µM: HOP-62 NSCLC
4 µM: SW-620 colon
33 µM: SK-MEL-2 melanoma
31.1 µM: OVCAR-5 ovarian
47.7 µM: NCI-H226 lung
2.86 µM: UO-31 renal
34.5 µM: SNB-19 CNS
11 µM: PC-3 prostate
3.37 µM: OVCAR-3 ovarian
2.94 µM: COLO 205 colon
31.8 µM: SK-OV-3 ovarian
3.89 µM: HL-60(TB) leukemia

OCC12C=CC(C1)c1ccccc12 (configuration not stated)
not listed: NCI-H522 lung | SK-MEL-2 melanoma | PC-3 prostate | MDA-MB-435
> 100 µM: all other assays above

C=CC[C@]1(/C=N/O)CN(S(=O)(=O)CC[Si](C)(C)C)C[C@H]2CC=CC[C@H]21
44.2 µM: OVCAR-5 ovarian
40.7 µM: CCRF-CEM leukemia
34.4 µM: NCI-H226 lung
39 µM: HOP-62 NSCLC
30 µM: SN12C renal
32.6 µM: COLO 205 colon | SK-MEL-2 melanoma
67.3 µM: OVCAR-8 ovarian
34.7 µM: SW-620 colon
51.7 µM: PC-3 prostate
64.5 µM: SK-OV-3 ovarian
42.3 µM: SNB-19 CNS
38 µM: NCI-H522 lung
> 100 µM: UO-31 renal | MDA-MB-435
32.5 µM: 786-0 renal

N#C/C(=C/c1cccc(Oc2ccccc2)c1)c1ccccc1
not listed: OVCAR-3 ovarian | SNB-19 CNS | HOP-62 NSCLC | PC-3 prostate | MDA-MB-435
> 100 µM: all other assays above

CC1(C)C2CCC1(C)C(N/C(Sc1ccccc1)=C(/C(Cl)=C(Cl)Cl)[N+](=O)[O-])C2 (configuration not stated)
26 µM: UO-31 renal
21.1 µM: PC-3 prostate
62.9 µM: HOP-62 NSCLC
31.1 µM: NCI-H226 lung
25.9 µM: MDA-MB-435
34.7 µM: SK-OV-3 ovarian
17.7 µM: OVCAR-3 ovarian
27.3 µM: OVCAR-8 ovarian
26.9 µM: 786-0 renal
43.9 µM: SNB-19 CNS
31 µM: SN12C renal
65.5 µM: OVCAR-5 ovarian
24 µM: SW-620 colon
25 µM: SK-MEL-2 melanoma

C[C@@H](C(=O)O)N1C(c2ccco2)=C(/C(C=O)=C\c2ccco2)C(=O)/C1=C\c1ccco1
not listed: NCI-H226 lung | SK-OV-3 ovarian | SR leukemia
> 100 µM: all other assays above

CCN1C[C@]2(C)CC[C@H](O)C34C1C(C[C@@H]32)[C@@]1(O)CC[C@H]2C[C@@H]4[C@@H]1[C@H]2O
not listed: NCI-H226 lung | PC-3 prostate | MDA-MB-435
> 100 µM: all other assays above

Cc1ccc(-n2[nH]nc(C(N)=O)c2=O)cc1
not listed: SK-MEL-2 melanoma | SR leukemia
> 100 µM: all other assays above

CCC(CC)NC1=C(NC(C)=O)C(=O)c2ccccc2C1=O
not listed: OVCAR-5 ovarian | PC-3 prostate | MDA-MB-435
> 50 µM: all other assays above

CC1(C)OCN(c2ccc(N3CCOCC3)cc2)Cn2c1nc1ccccc12
72.9 µM: HL-60(TB) leukemia
92.7 µM: SR leukemia
not listed: OVCAR-5 ovarian | PC-3 prostate | MDA-MB-435
> 100 µM: all other assays above

CCC1=CCN(c2cc(C)ccn2)OC1c1ccc(OC)cc1 (configuration not stated)
50.6 µM: HL-60(TB) leukemia
85.7 µM: CCRF-CEM leukemia
41.4 µM: SK-MEL-2 melanoma
64.6 µM: SN12C renal
68.5 µM: SR leukemia
52.1 µM: NCI-H522 lung
33.6 µM: COLO 205 colon
not listed: PC-3 prostate | MDA-MB-435
> 100 µM: all other assays above

CNc1ncccc1Nc1cc(=O)n2c3cccnc3n(C)c2c1
not listed: HL-60(TB) leukemia | SK-MEL-2 melanoma | SN12C renal
> 100 µM: all other assays above

CCOC(=O)CCC(NC(=O)c1ccc(Nc2nc3ccc(C(F)(F)F)cc3nc2-c2ccccc2)cc1)C(=O)OCC (configuration not stated)
29.7 µM: COLO 205 colon
76 µM: OVCAR-3 ovarian
49.7 µM: SK-MEL-2 melanoma
> 87.2 µM: UO-31 renal
55.2 µM: NCI-H522 lung
not listed: SK-OV-3 ovarian | PC-3 prostate
> 100 µM: all other assays above
